# Test results taken from a melting point compilation (Tetko et al.; mined from patent text by program, amines drawn as free bases though some values may be those of a salt).
row,melting point,SMILES
1,188 to 190 °C,COc1ccc(-c2cc3ccccc3s2)cc1
2,196 to 197 °C,Cc1[nH]c2ccccc2c1C(=O)CCn1ccnc1
3,98.5 to 100 °C,CN(C)CCCN1c2ccccc2N(C)C(=O)c2cccnc21
4,114 to 116 °C,COc1ccc(OCc2ccccc2)cc1C(=O)O
5,139 to 140 °C,CN1CCN(c2cccc(N)c2)C(=O)C1
6,267 to 270 °C,O=[N+]([O-])c1ccc2ncnc(Nc3cccc(Br)c3)c2c1
7,75 to 80 °C,CC(C)c1ccc(S(=O)(=O)c2ccc(F)cc2)c(C(C)C)c1
8,86 to 87 °C,Nc1nccc(OCCc2ccccc2)c1N
9,278 to 280 °C,CC1(C)C(=O)Nc2cc3[nH]cnc3cc21
10,105 to 106 °C,CC(C)(C)C(=O)Nc1cc(Cl)c(Cl)cn1
11,103 °C,CCc1ccc(-c2ccc(Cl)cc2)cc1
12,270 to 272 °C,COc1ccc(-c2cc(O)nc(C)n2)cc1
13,91 to 93 °C,CCOC(=O)COc1c(-c2ccccc2)cc(O)cc1-c1ccccc1
14,142 to 144 °C,CCC1(CCCCN2CCN(c3cccc(Cl)c3)CC2)C(=O)Nc2ccc(C)cc21 (stereo not given)
15,163 °C,Cc1ccc(CS(=O)(=O)c2nc3cscc3[nH]2)nc1
16,161 to 163 °C,O=C(O)CCCCc1cccc2cncn12

row,melting point,SMILES
1,141 to 142 °C,CCOC(=O)c1cnn2c1N(C(=O)CCl)CC=C2c1cccc(C(F)(F)F)c1
2,193 to 195 °C,CC1(C)Nc2ccccc2-c2c([N+](=O)[O-])cnn21
3,97 to 98 °C,Cc1nc(CCOc2ccc([N+](=O)[O-])cc2)c(C)o1
4,132 °C,CSc1nn(C(=O)NC(C)c2ccc(Cl)c(Cl)c2)c(=O)n1N (stereo not given)
5,244 to 245 °C,CC(C)c1ccc2cc(C(=O)Nc3ccc(OCC(C)(C)C)c(C#N)c3)sc2n1
6,150 to 152 °C,CCNc1nc2n(n1)Cc1ccccc1-2
7,180 to 185 °C,CSC(=S)NN=Cc1nc(-c2ccccc2)[nH]c1C
8,97 to 98 °C,Cc1cccc(C)c1NCCCN1C(=O)c2ccccc2C1=O
9,109 °C,Brc1cc(-c2ccccc2)cc(-c2ccccc2)c1
10,112 °C,CNC(=O)C(C)Oc1ccc(O)cc1 (stereo not given)
11,99 to 102 °C,Cc1cc(C#N)c(Nc2ccccc2[N+](=O)[O-])s1
12,136 to 141 °C,Cn1cc(C2=C(c3cccc(N4CCC(O)CC4)c3)C(=O)NC2=O)c2ccccc21
13,163 to 164 °C,CC(C)(C)OC(=O)N[C@@H](Cc1ccc(-c2ccccc2)cc1)C(=O)NCCC#N
14,204 to 205 °C,CNc1ncc2cc(-c3ccccc3)c(NC)nc2n1
15,122 to 123 °C,Cc1cccc(C2=NC(C)(C(C)C)C(=S)N2)c1 (stereo not given)
16,187 to 190 °C,Cc1nc2n(c1CO)-c1ccccc1N(C)c1ccccc1-2

# More lines, now with the values behind:
row,SMILES,melting point
1,CC(=O)c1cc(Cl)ccc1Nc1ccc(OCc2ccccc2)cc1,74 to 75 °C
2,N#CC1=C(C2CCCCCC2)Nc2n[nH]cc2C1c1ccccc1Cl (stereo not given),146 °C
3,COc1cc(Cc2cnc(N)nc2N)cc2c(C)cc(C)nc12,289 to 290 °C
4,O=[N+]([O-])c1cnc(Sc2nccnc2Cl)s1,139 to 141 °C
5,O=C(O)CCCCCOc1ccc2sc(-c3ccccn3)nc(=O)c2c1,205 to 206 °C
6,CN1CCN(c2ccc3c4c(cccc24)C(=O)N(O)C3=O)CC1,326 to 329 °C
7,OCC(CO)c1ccccc1,52 to 54 °C
8,COc1ccc(-c2nn(CC3CCCC3)c(=O)cc2-c2ccncc2)cc1,119 to 120 °C
9,CC(C)(C)N(N)C(=O)c1ccccc1,124 to 125 °C
10,O=C1C2CCCCC2C(=O)N1c1c(F)cc(F)cc1F (stereo not given),129 to 131 °C
11,Cc1cc2c(cc1C(F)(F)F)NCC2,43 to 44 °C
12,O=C(O)c1cn(-c2cc([N+](=O)[O-])c(F)cc2F)c2c(F)c(F)c(F)cc2c1=O,245 to 255 °C
13,Cn1c(C(F)(F)F)cc(=O)n(-c2cc([N+](=O)[O-])c(Br)cc2F)c1=O,124 to 125 °C
14,O=C(O)CN(Cc1ccccc1)C(=O)CCc1nc2c(F)c(F)cc(F)c2s1,144 to 146 °C
15,O=C(NC(=O)c1cc(Cl)cc(Cl)c1)NC1CN2CCC1CC2 (stereo not given),253 to 254 °C
16,COc1ccc(OC)c2nc(Cl)c(C=O)cc12,177 to 178 °C
17,Cc1ccc(C)n1-c1cc2c(cc1C(F)(F)F)[nH]c(=O)c(=O)n2CC(=O)NCc1ccccc1,> 250 °C
18,O=C(O)c1cccc(OC(Cl)=CCl)c1,137 to 141 °C
19,O=c1[nH]c(=O)n(C2OC(CBr)C(O)C2O)cc1C=CBr (stereo not given),201 °C
20,C=CC1CCC2C3CC(=O)C4=CC(=O)CCC4(C)C3CCC12C (stereo not given),114 to 120 °C
21,COC1CN(CCCNc2ncccn2)CCC1NC(=O)C1=CC(Cl)(OC)C(N)C=C1 (stereo not given),158 °C
22,CCN(CC)C(=O)c1ccc(C)c(-c2nc(N(C)CCCN(C)C)nc3c2CNC(=O)N3c2c(F)cccc2F)c1,106 to 108 °C
23,O=C(O)C(=O)c1ccc(Br)s1,119 to 120 °C
24,CCCc1cc(NC(=O)N2CCN(c3cc(OC)cc(OC)c3)CC2)c(OC)nc1C,82 to 84 °C
25,C#CCCCCCC(=O)Nc1nc2nn(C)cc2c2nc(-c3ccco3)nn12,204 to 208 °C

row,SMILES,melting point
1,CCOC(=O)c1ncc2c(c1COC)c1c(OCc3ccccc3)cccc1n2S(=O)(=O)c1ccc(C)cc1,149 to 150 °C
2,CCCCCCOc1c(OCCCCCC)c(OC(=O)C(C)(C)C)c2ccccc2c1OC(=O)C(C)(C)C,111 to 112 °C
3,CCCC(NS(=O)(=O)c1ccc(Cl)cc1)C(=O)NNC(=S)NC (stereo not given),191 to 195 °C
4,CN(C)C(=O)N(C)c1nnc(SCc2ccccc2)s1,48 to 51 °C
5,C=CCOc1ccc(C(=O)C=Cc2cc(OC)cc(OC)c2)cc1,88.5 to 90 °C
6,O=C(O)c1ccc(=O)n(NC(=O)c2cccnc2)c1,> 250 °C
7,Nc1nc2cccnc2c2c1nc(O)n2CC1CCOCC1,250 to 260 °C
8,COC(C)(C)C#Cc1ncn2c1CN(C)C(=O)c1ccccc1-2,136 to 137 °C
9,COc1ccc(C(=O)NCCCCCNC(=O)c2ccc(OC)cc2)cc1,160 to 161 °C
10,C[C@@H]1N(C)C(C)(C)CO[C@@]1(O)c1ccc(Cl)cc1,167 to 169 °C
11,Cc1cc(Cl)c2c(O)c3c(=O)[nH][nH]c(=O)c3nc2c1,197 to 199 °C
12,Brc1ccc2c(c1)N=C(N1CCN(c3ccccc3)CC1)c1cccc3c1N2CC3,171 to 173 °C
13,O=C(Nc1noc2ccccc12)N1CCN(c2nc(N3CCCCC3)ns2)CC1,214 to 215 °C
14,CC(C)(C)OC(=O)COc1ccc(NC(=O)NC(=O)c2ccc(C(N)=S)nc2)cc1,248 to 249 °C
15,Cc1ccnc(Sc2cnc(N)s2)n1,158 to 159 °C
16,CCOc1cc(C(=CC#N)c2ccc(OC)c([N+](=O)[O-])c2)ccc1OC,141 to 143 °C
17,Cc1cc(C(N)=O)ccc1NC1CCN(Cc2ccccc2)CC1,156 to 158 °C
18,CNC(=S)NCCCNc1ccccn1,134 to 135 °C
19,CN(C)Cn1cnc2c1c(=O)n(C)c(=O)n2C,121 to 123 °C
20,CC(C)OC(=O)Nc1cccc(-c2ccnc3c(C(=O)C4CCCC4)cnn23)c1,57 to 59 °C
21,CCOC(=O)C(C#N)=C(C)Nc1ccnc(-c2ccncc2)n1,203 to 205 °C
22,C[Si](C)(C)CCc1nnc(N)nc1N,203 to 204 °C
23,Cc1cccnc1N[C@H]1CC[C@H](C2CCCCC2)CC1,65 to 67 °C
24,CCOC(=O)c1cnc2cc(OCc3ccccc3)c(OCc3ccccc3)cn2c1=O,175 °C
25,Cc1c(Sc2ccc(Cl)cc2)nn(-c2ccccc2)c(=O)c1C#N,180 to 182 °C

row,SMILES,melting point
1,CN1C(=O)CSc2c(NCc3cccc(OCc4ccc5ccccc5n4)c3)cccc21,102 to 104 °C
2,CCC(=O)CCc1ccc(OC)c(S(N)(=O)=O)c1,135 to 138 °C
3,CCCCCCCCCCCCCC(c1ccccc1)S(=O)(=O)NC(=O)Nc1c(C(C)C)cccc1C(C)C (stereo not given),97 to 102 °C
4,O=C(O)c1cccc(OCc2ccccc2)c1[N+](=O)[O-],198 to 200 °C
5,C[C@@H]1CN(c2nccc(Oc3ccc(NC(=O)c4cc(F)cc(N5CCOCC5)c4)c4ccccc34)n2)C[C@H](C)O1,118 to 120 °C
6,Cc1ccnc2c1C(=O)CC(c1cc(Cl)sc1Cl)C2 (stereo not given),130 to 131 °C
7,CON=C(C1=CN(C)CC=C1)C(F)(F)F,140 to 143 °C
8,C=CCNc1cc(Oc2cc(Cl)c(Br)cc2Cl)c(Cl)cc1[N+](=O)[O-],102 °C
9,O=C(O)c1ccc2nc(-c3ccccc3)c(-c3ccccc3)nc2c1,290 to 292 °C
10,COc1ccc2[nH]c(C)c(C3CN4CCC3CC4)c2c1 (stereo not given),232 to 234 °C
11,COc1ccc(CCNc2cc(-c3ccco3)nc(-c3nccs3)n2)cc1OC,83 to 83.8 °C
12,O=C(Nc1ccc(-n2nc(C(F)(F)F)cc2C(F)(F)F)cc1)c1ccc(-n2cccc2)cc1,249 to 252 °C
13,COc1c(O)nc(-c2ccc(OCc3ccccc3)cc2)nc1O,251 to 252 °C
14,COC(=O)C(=O)c1ccc(SC)c(Cl)c1,67.9 to 70.2 °C
15,O=C(Cn1nnnc1-c1cc2ccccc2o1)OCCO,131 to 135 °C
16,O=[N+]([O-])c1nccn1CCCl,85 to 87 °C
17,Cc1cc(C)c2cccc(OCc3c(Cl)ccc(S(=O)(=O)N4CCC[C@H]4C(=O)N4CCN(C(=O)c5ccc(C(N)=NO)cc5)CC4)c3Cl)c2n1,161 °C
18,O=C(O)Cc1cc(C(=O)C=Cc2ccc(Cl)cc2)ccc1O,244 °C
19,Cn1ncnc1COc1nc2c(nnn2-c2ccccc2)c2ccccc12,188 to 190 °C
20,CCCc1nn2ncc(C(=O)OCC)c2n1Cc1ccc(-c2ccccc2-c2nnnn2C(c2ccccc2)(c2ccccc2)c2ccccc2)cc1,106 to 108 °C
21,CN(C(=O)CN(C(=O)CNC(=O)OC(C)(C)C)c1ccccc1OCc1ccccc1)c1ccccc1,168 to 170 °C
22,O=C(O)c1cn(CCc2ccc(O)cc2)c2cc(C3CC3)nn2c1=O,265 to 270 °C
23,O=C(CN1C(=O)c2ccccc2C1=O)Nc1ccccc1OC(F)(F)F,192 °C
